Counter-ions that a name gives are not always drawn.
Key:
[1] = system: IL-17A-induced G-CSF production in human normal keratinocyte (NHK); experiment: NHK Assay: IL-17A-induced G-CSF production in human normal keratinocytes; type: cell-based; details: 24 h, adult normal human keratinocytes, IL-17A 5 ng/mL, simple average if tested more than once
Summary of the method: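 G-CSF released by primary adult human keratinocytes after 24 h at 37° C was quantified by HTRF via standard curve to give IC50. Stimulus was 5 ng/mL IL-17A pre-mixed 1 h at rt with compound dilutions, in 5% FBS and 0.2% DMSO. Cell viability was assessed in parallel with CellTiter-Glo.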

[2] = target: IL-17A(FLAG-Tagged): IL-17RA(His-Tagged) (Homo sapiens, UniProt Q16552, K93Q); experiment: IL-17A(FLAG-Tagged): IL-17RA(His-Tagged) Binding Disruption Eu-HTRF Assay; details: IL-17A/IL-17RA binding disruption, simple average if tested more than once
UniProt Q16552, sequence (Q16552 with tags, fused parts or gaps K93Q): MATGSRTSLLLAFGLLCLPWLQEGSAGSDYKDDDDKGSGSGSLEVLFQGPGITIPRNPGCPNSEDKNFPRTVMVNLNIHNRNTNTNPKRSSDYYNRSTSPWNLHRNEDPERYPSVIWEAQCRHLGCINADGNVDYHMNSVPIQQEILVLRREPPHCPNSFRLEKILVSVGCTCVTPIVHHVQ
Summary of the method: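 IC50 comes from a one-site competition fit of the HTRF 665/620 nm ratio. Compound dilutions (2-fold, 22 points) were held 1 h rt with FLAG-tagged IL-17A dimer, then His-tagged IL-17RA plus Eu-cryptate anti-FLAG and D2 anti-His antibodies were added for 2 h rt.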

| SMILES | IC50 [2] [nM] | IC50 ([1]; Homo sapiens, Keratinocyte) [nM] | IC50 [1] [nM] |
| --- | --- | --- | --- |
| CC(C)n1nccc1C(=O)N[C@H](c1cn2ncc([C@H](NC(=O)C[C@@H](O)C(F)(F)F)C3CC3)cc2n1)C1CCC(F)(F)CC1 (relative stereo) [Example 130, N—((S)-(7-((R*)-Cyclopropyl((R*)-4,4,4-trifluoro-3-hydroxybutanamido)methyl)imidazo[1,2-b]pyridazin-2-yl)(4,4-difluorocyclohexyl)methyl)-1-isopropyl-1H-pyrazole-5-carboxamide] | 270 | 390 | – |
| Cc1nonc1C(=O)N[C@H](c1cn2ncc([C@H](NC(=O)CC3CC3(F)F)C3CC3)cc2n1)C1CCC(F)(F)CC1 (relative stereo) [Example 256] | 56 | 250 | – |
| COc1cc(C(=O)N[C@H](c2cn3ncc([C@H](NC(=O)CCC(F)(F)F)C4CC4)cc3n2)C2CCC(F)(F)CC2)ccn1 [Example 184, N—((S)-(7-((R)-Cyclopropyl(4,4,4-trifluorobutanamido)methyl)imidazo[1,2-b]pyridazin-2-yl)(4,4-difluorocyclohexyl)methyl)-2-methoxyisonicotinamide] | 110 | 590 | – |
| CC(C)c1snnc1C(=O)N[C@H](c1cn2ncc([C@H](NC(=O)CCC(F)(F)F)C3CC3)cc2n1)C1CCC(F)(F)CC1 [Example 87, N—((S)-(7-((R)-Cyclopropyl(4,4,4-trifluorobutanamido)methyl)imidazo[1,2-b]pyridazin-2-yl)(4,4-difluorocyclohexyl)methyl)-5-isopropyl-1,2,3-thiadiazole-4-carboxamide] | 33 | 95 | – |
| Cc1c(C(=O)N[C@H](c2cn3ncc(C(NC(=O)CC4CC(F)(F)C4)C4CC4)cc3n2)C2CCC(F)(F)CC2)cnn1CCC(F)(F)F (single isomer, unassigned) [Example 51, N—((S)-(7-((S*)-Cyclopropyl(2-(3,3-difluorocyclobutyl)acetamido)methyl)imidazo[1,2-b]pyridazin-2-yl)(4,4-difluorocyclohexyl)methyl)-5-methyl-1-(3,3,3-trifluoropropyl)-1H-pyrazole-4-carboxamide] | 12000 | – | ~18000 |
| O=C(N[C@H](c1cn2ncc(CNC(=O)[C@H]3NCCC[C@@H]3C(F)(F)F)cc2n1)C1CCCCC1)c1ccccc1 (relative stereo) [Example 2, (Trans-2S*,3S*)—N-((2-((S)-benzamido(cyclohexyl)methyl)imidazo[1,2-b]pyridazin-7-yl)methyl)-3-(trifluoromethyl)piperidine-2-carboxamide hydrochloride] | 7600 | > 20000 | – |
| Cc1nonc1C(=O)N[C@H](c1cn2ncc([C@H](NC(=O)CC(C)C(F)F)C3CC3)cc2n1)C1CCC(F)(F)CC1 (single isomer, unassigned) [Example 265, N—((S)-(7-((R)-Cyclopropyl((S*)-4,4-difluoro-3-methylbutanamido)methyl)imidazo[1,2-b]pyridazin-2-yl)(4,4-difluorocyclohexyl)methyl)-4-methyl-1,2,5-oxadiazole-3-carboxamide] | 210 | – | 1100 |
| N#CC12CC(Cn3ncc(C(=O)N[C@H](c4cn5ncc([C@H](NC(=O)CCC(F)(F)F)C6CC6)cc5n4)C4CCC(F)(F)CC4)n3)(C1)C2 [Example 146, 2-((3-Cyanobicyclo[1.1.1]pentan-1-yl)methyl)-N—((S)-(7-((R)-cyclopropyl(4,4,4-trifluorobutanamido)methyl)imidazo[1,2-b]pyridazin-2-yl)(4,4-difluorocyclohexyl)methyl)-2H-1,2,3-triazole-4-carboxamide] | 680 | 710 | – |
| Cc1conc1C(=O)N[C@H](c1cn2ncc([C@H](NC(=O)CCC(F)(F)F)C3CC3)cc2n1)C1CCC(F)(F)CC1 [Example 158, N—((S)-(7-((R)-Cyclopropyl(4,4,4-trifluorobutanamido)methyl)imidazo[1,2-b]pyridazin-2-yl)(4,4-difluorocyclohexyl)methyl)-4-methylisoxazole-3-carboxamide] | 48 | 210 | – |
| CC(C)n1nccc1C(=O)N[C@H](c1cn2ncc([C@H](NC(=O)CC34CC(F)(C3)C4)C3CC3)cc2n1)C1CCC(F)(F)CC1 [Example 273, N—((S)-(7-((R)-Cyclopropyl(2-(3-fluorobicyclo[1.1.1]pentan-1-yl)acetamido)methyl)imidazo[1,2-b]pyridazin-2-yl)(4,4-difluorocyclohexyl)methyl)-1-isopropyl-1H-pyrazole-5-carboxamide] | 160 | 71 | – |
| O=C(CCC(F)(F)F)N[C@@H](c1cnn2cc([C@@H](NC(=O)c3ccnn3C(F)F)C3CCC(F)(F)CC3)nc2c1)C1CC1 [Example 67, N—((S)-(7-((R)-Cyclopropyl(4,4,4-trifluorobutanamido)methyl)imidazo[1,2-b]pyridazin-2-yl)(4,4-difluorocyclohexyl)methyl)-1-(difluoromethyl)-1H-pyrazole-5-carboxamide] | 82 | 180 | – |
| CC(C)n1nccc1C(=O)N[C@@H](COC(C)(C)C)c1cn2ncc([C@H](NC(=O)CC3CC(F)(F)C3)C3CC3)cc2n1 [Example 318, N—((R)-2-(tert-Butoxy)-1-(7-((R)-cyclopropyl(2-(3,3-difluorocyclobutyl)acetamido)methyl)imidazo[1,2-b]pyridazin-2-yl)ethyl)-1-isopropyl-1H-pyrazole-5-carboxamide] | 270 | 480 | – |
| O=C(CCC(F)(F)F)N[C@@H](c1cnn2cc([C@@H](NC(=O)c3ccnc(OC(F)F)c3)C3CCC(F)(F)CC3)nc2c1)C1CC1 [Example 186, N—((S)-(7-((R)-Cyclopropyl(4,4,4-trifluorobutanamido)methyl)imidazo[1,2-b]pyridazin-2-yl)(4,4-difluorocyclohexyl)methyl)-2-(difluoromethoxy)isonicotinamide] | 110 | 720 | – |
| O=C(CC1CC(F)(F)C1)NC(c1cnn2cc([C@@H](NC(=O)c3cnn(CC4CC4)n3)C3CCC(F)(F)CC3)nc2c1)C1CC1 (single isomer, unassigned) [Example 26, N—((S)-(7-((R*)-Cyclopropyl(2-(3,3-difluorocyclobutyl)acetamido)methyl)imidazo[1,2-b]pyridazin-2-yl)(4,4-difluorocyclohexyl)methyl)-2-(cyclopropylmethyl)-2H-1,2,3-triazole-4-carboxamide] | 68 | 230 | – |

Further lines, with some results ahead:

| IC50 [2] [nM] | SMILES | IC50 ([1]; Homo sapiens, Keratinocyte) [nM] | IC50 [1] [nM] |
| --- | --- | --- | --- |
| 8500 | Cc1noc(C(=O)N[C@H](c2cn3ncc([C@H](NC(=O)CCC(F)(F)F)C4CC4)cc3n2)C2CCC(F)(F)CC2)c1C [Example 473, N—((S)-(7-((R)-Cyclopropyl(4,4,4-trifluorobutanamido)methyl)imidazo[1,2-b]pyridazin-2-yl)(4,4-difluorocyclohexyl)methyl)-3,4-dimethylisoxazole-5-carboxamide] | > 20000 | – |
| 980 | [2H]C([2H])([2H])C([2H])([2H])n1nccc1C(=O)N[C@H](c1cn2ncc(C(COCC)NC(=O)CC3CC(F)(F)C3)cc2n1)C1CCC(F)(F)CC1 (single isomer, unassigned) [Example 530, N—((S)-(7-((R*)-1-(2-(3,3-Difluorocyclobutyl)acetamido)-2-ethoxyethyl)imidazo[1,2-b]pyridazin-2-yl)(4,4-difluorocyclohexyl)methyl)-1-(ethyl-d5)-1H-pyrazole-5-carboxamide] | – | 4600 |
| 140 | CC(C)(O)c1nonc1C(=O)N[C@H](c1cn2ncc([C@H](NC(=O)CCC(F)(F)F)C3CC3)cc2n1)C1CCC(F)(F)CC1 [Example 371, N—((S)-(7-((R)-Cyclopropyl(4,4,4-trifluorobutanamido)methyl)imidazo[1,2-b]pyridazin-2-yl)(4,4-difluorocyclohexyl)methyl)-4-(2-hydroxypropan-2-yl)-1,2,5-oxadiazole-3-carboxamide] | 450 | – |
| 85 | COc1nonc1C(=O)N[C@H](c1cn2ncc([C@H](NC(=O)CC3CC(F)(F)C3)C3CC3)cc2n1)C1CCC(F)(F)CC1 [Example 409, N—((S)-(7-((R)-Cyclopropyl(2-(3,3-difluorocyclobutyl)acetamido)methyl)imidazo[1,2-b]pyridazin-2-yl)(4,4-difluorocyclohexyl)methyl)-4-methoxy-1,2,5-oxadiazole-3-carboxamide] | 140 | – |
| 95 | [2H]C([2H])([2H])n1nccc1C(=O)N[C@H](c1cn2ncc([C@H](NC(=O)CCC(F)(F)F)C3CC3)cc2n1)C1CCC(F)(F)CC1 [Example 488, N—((S)-(7-((R)-Cyclopropyl(4,4,4-trifluorobutanamido)methyl)imidazo[1,2-b]pyridazin-2-yl)(4,4-difluorocyclohexyl)methyl)-1-(methyl-d3)-1H-pyrazole-5-carboxamide] | 220 | – |
| 48 | O=C(CCC(F)(F)F)N[C@@H](c1cnn2cc([C@@H](NC(=O)c3nonc3OC3CC3)C3CCC(F)(F)CC3)nc2c1)C1CC1 [Example 380, 4-Cyclopropoxy-N—((S)-(7-((R)-cyclopropyl(4,4,4-trifluorobutanamido)methyl)imidazo[1,2-b]pyridazin-2-yl)(4,4-difluorocyclohexyl)methyl)-1,2,5-oxadiazole-3-carboxamide] | 30 | – |
| 1900 | CCC(NC(=O)CC1CC(F)(F)C1)c1cnn2cc([C@@H](NC(=O)c3nonc3C)C3CCC(F)(F)CC3)nc2c1 (single isomer, unassigned) [Example 509, N—((S)-(7-((S*)-1-(2-(3,3-Difluorocyclobutyl)acetamido)propyl)imidazo[1,2-b]pyridazin-2-yl)(4,4-difluorocyclohexyl)methyl)-4-methyl-1,2,5-oxadiazole-3-carboxamide] | > 20000 | – |
